Laboratory results: US20230031406A1, “COMPOUNDS AND COMPOSITIONS FOR TREATING CONDITIONS ASSOCIATED WITH NLRP ACTIVITY” (Novartis AG, priority 2018, published 2023)
pIC50: −log10 of the molar value. Read-outs that look alike come from different tables or passages of the source. Blank lines part the entries; values can stand above or below the compound they belong to.

Test system: PMA-differentiated THP-1 cells
Test: IL-1β production in PMA-differentiated THP-1 cells stimulated with gramicidin (hTHP-1 assay containing 2% fetal bovine serum; Procedures 1 and 2)
Assay type: cell-based, human
Conditions: 2% fetal bovine serum
How it was run: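 THP-1 cells were differentiated with PMA (20 ng/ml, 16-18 h), detached, and plated at 50,000 cells/well in RPMI 1640 with 2% FBS. They were pre-treated with compound (0.0017–100 μM, 0.37% DMSO) for 1 h, then stimulated with gramicidin (5 μM) for 2 h. Supernatant IL-1β was measured by HTRF.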

[1] = Table B2, class symbols, read-out: hTHP-1 IC50
[2] = Table B1, class symbols, read-out: Average IC50 of compounds in hTHP-1 assay: hTHP-1 IC50
[3] = Homo sapiens, THP-1, Table B2, class symbols, read-out: hTHP-1 IC50
[4] = Homo sapiens, THP-1, Table B3, hTHP-1 assay, class symbols, read-out: IC50
[5] = Homo sapiens, THP-1, Table B2, numeric bounds, read-out: hTHP-1 IC50

pIC50 [1]: 4.52 to 5.30
Structure (SMILES): Cc1c(C(F)(F)F)nc2c(c1NC(=O)N=S(N)(=O)c1ccn(C(F)F)n1)CCC2 (single isomer, unassigned) [Compound 621a, (S) or (R)-1-(Difluoromethyl)-N′-((3-methyl-2-(trifluoromethyl)-6,7-dihydro-5H-cyclopenta[b]pyridin-4-yl)carbamoyl)-1H-pyrazole-3-sulfonimidamide]

pIC50 (Homo sapiens, THP-1, Table B4, numeric bounds, read-out: hTHP-1 IC50): < 4.52
Structure (SMILES): NS(=O)(=NC(=O)Nc1c2c(nc3c1CCC3)CCC2)c1nn(C(F)F)cc1F (single isomer, unassigned) [Example 760, (S) or (R)-1-(difluoromethyl)-4-fluoro-N′-((1,2,3,5,6,7-hexahydrodicyclopenta[b,e]pyridin-8-yl)carbamoyl)-1H-pyrazole-3-sulfonimidamide]

pIC50 [1]: 5.30 to 6.00
Structure (SMILES): CCc1c(C2CC2)nc2c(c1NC(=O)N=S(N)(=O)c1cnc(C(C)(C)O)s1)CCC2 (single isomer, unassigned) [Compound 675a, (R) or (S)-N′-((2-cyclopropyl-3-ethyl-6,7-dihydro-5H-cyclopenta[b]pyridin-4-yl)carbamoyl)-2-(2-hydroxypropan-2-yl)thiazole-5-sulfonimidamide]

pIC50 [4]: 6.00 to 6.70
Structure (SMILES): Cc1c(C(F)(F)F)nc2c(c1NC(=O)N=S(N)(=O)c1nn(C(F)F)cc1F)CCC2 (centres unmarked) [Example 561, 1-(Difluoromethyl)-4-fluoro-N′-((3-methyl-2-(trifluoromethyl)-6,7-dihydro-5H-cyclopenta[b]pyridin-4-yl)carbamoyl)-1H-pyrazole-3-sulfonimidamide]

pIC50 (Table B3, hTHP-1 assay, class symbols, read-out: IC50): 6.70 to 7.40
Structure (SMILES): CCn1cc(F)c(S(N)(=O)=NC(=O)Nc2c(C)c(C(F)(F)F)nc3c2CCC3)n1 (single isomer, unassigned) [Example 649, (R) or (S)-1-ethyl-4-fluoro-N′-((3-methyl-2-(trifluoromethyl)-6,7-dihydro-5H-cyclopenta[b]pyridin-4-yl)carbamoyl)-1H-pyrazole-3-sulfonimidamide]

pIC50 [5]: < 4.52
Structure (SMILES): CC1CCc2c1nc1c(c2NC(=O)N=S(N)(=O)c2cnn(C(C)C)c2)CCC1 (single isomer, unassigned) [Compound 171a, (S, R) and (S, S) or (R, S) and (R, R)-1-Isopropyl-N′-((3-methyl-1,2,3,5,6,7-hexahydrodicyclopenta [b,e]pyridin-8-yl)carbamoyl)-1H-pyrazole-4-sulfonimidamide]

pIC50 [5]: < 4.52
Structure (SMILES): NS(=O)(=NC(=O)Nc1c2c(nc3c1CCC3)CCC2)c1ccn(CC(F)(F)F)n1 (single isomer, unassigned) [Compound 685a, (S) or (R)-N′-((1,2,3,5,6,7-hexahydrodicyclopenta [b,e]pyridin-8-yl)carbamoyl)-1-(2,2,2-trifluoroethyl)-1H-pyrazole-3-sulfonimidamide]

pIC50 (Homo sapiens, THP-1, Table B4, class symbols, read-out: hTHP-1 IC50): 6.70 to 7.40
Structure (SMILES): CCn1cc(F)c(S(N)(=O)=NC(=O)Nc2c3c(nc(C)c2-c2ccccc2)CCC3)n1 (centres unmarked) [Example 741, 1-Ethyl-4-fluoro-N′-((2-methyl-3-phenyl-6,7-dihydro-5H-cyclopenta[b]pyridin-4-yl)carbamoyl)-1H-pyrazole-3-sulfonimidamide]

pIC50 [1]: 4.52 to 5.30
Structure (SMILES): CCc1c(C(F)(F)F)nc2c(c1NC(=O)N=S(N)(=O)c1cnc(C(C)(C)O)s1)CCC2 (single isomer, unassigned) [Compound 610b, (S) or (R)-N′-((3-ethyl-2-(trifluoromethyl)-6,7-dihydro-5H-cyclopenta[b]pyridin-4-yl)carbamoyl)-2-(2-hydroxypropan-2-yl)thiazole-5-sulfonimidamide]

pIC50 (Table B2, numeric bounds, read-out: hTHP-1 IC50): < 4.52
Structure (SMILES): CC1CCc2c1nc1c(c2NC(=O)N=S(N)(=O)c2cn(C(C)C)cn2)CCC1 (single isomer, unassigned) [Compound 660a, (R, S) or (S, S) or (S, R) or (R, R)-1-Isopropyl-N′-((3-metliyl-1,2,3,5,6,7-hexahydrodicyclopenta [b,e]pyridin-8-yl)carbamoyl)-1H-imidazole-4-sulfonimidamide]

pIC50 [4]: 5.30 to 6.00
Structure (SMILES): Cc1c(C(F)(F)F)nc2c(c1NC(=O)N=S(N)(=O)c1cc(CO)n(C(C)C)n1)CCC2 (single isomer, unassigned) [Example 719, (S) or (R)-5-(hydroxymethyl)-1-isopropyl-N′-((3-methyl-2-(trifluoromethyl)-6,7-dihydro-5H-cyclopenta[b]pyridin-4-yl)carbamoyl)-1H-pyrazole-3-sulfonimidamide]

pIC50 [3]: 6.00 to 6.70
Structure (SMILES): C[C@@H]1CCc2c1nc1c(c2NC(=O)N=S(N)(=O)c2ccn(C)n2)CCC1 (single isomer, unassigned) [Compound 639b, (R) or (S)-1-Methyl-N′-(((R)-3-methyl-1,2,3,5,6,7-hexahydrodicyclopenta [b,e]pyridin-8-yl)carbamoyl)-1H-pyrazole-3-sulfonimidamide]

pIC50 [3]: 6.00 to 6.70
Structure (SMILES): C[C@@H]1CCc2c1nc1c(c2NC(=O)N=S(N)(=O)c2ccn(-c3ccccc3)n2)CCC1 (single isomer, unassigned) [Compound 700b, (R) or (S)-N′-(((R)-3-methyl-1,2,3,5,6,7-hexahydrodicyclopenta [b,e]pyridin-8-yl)carbamoyl)-1-phenyl-1H-pyrazole-3-sulfonimidamide]

pIC50 [5]: < 4.52
Structure (SMILES): CC1CCc2c1nc1c(c2NC(=O)N=S(N)(=O)c2cn(C(C)C)cn2)CCC1 (single isomer, unassigned) [Compound 660c, (S, R) or (R, S) or (S, S) or (R, R)-1-Isopropyl-N′-((3-methyl-1,2,3,5,6,7-hexahydrodicyclopenta [b,e]pyridin-8-yl)carbamoyl)-1H-imidazole-4-sulfonimidamide]

Further lines, the compound ahead of its results:

Structure (SMILES): CC(C)(O)c1csc(S(N)(=O)=NC(=O)Nc2c3c(nc4c2CCC4(C)C)CCC3)c1 (single isomer, unassigned) [Compound 127b, (R) or (S)-N′-((3,3-dimethyl-1,2,3,5,6,7-hexahydro-dicyclopenta[b,e]pyridin-8-yl)carbamoyl)-4-(2-hydroxypropan-2-yl)thio-phene-2-sulfonimidamide]
pIC50 [2]: 6.70 to 7.40

Structure (SMILES): CC(C)c1ncc(F)c(C(C)C)c1NC(=O)N=S(N)(=O)c1ncc(C(C)(C)O)s1 [Compound 165a, (R)- and (S)-N′-((5-fluoro-2,4-diisopropylpyridin-3-yl)carbamoyl)-5-(2-hydroxypropan-2-yl)thiazole-2-sulfonimidamide]
pIC50 [2]: 6.00 to 6.70

Structure (SMILES): CC(C)(O)c1ccnc(S(N)(=O)=NC(=O)Nc2c3c(nc4c2CCC4(C)C)CCC3)c1 (single isomer, unassigned) [Compound 620b, (R) or (S)-N′-((3,3-dimethyl-1,2,3,5,6,7-hexahydrodicyclopenta [b,e]pyridin-8-yl)carbamoyl)-4-(2-hydroxypropan-2-yl)pyridine-2-sulfonimidamide]
pIC50 [3]: 5.30 to 6.00

Structure (SMILES): CC1(C)CCc2c1nc1c(c2NC(=O)N=S(N)(=O)c2cnn3c2OCCC3)CCC1 (centres unmarked) [Compound 304, N′-((3,3-dimethyl-1,2,3,5,6,7-hexahydrodicyclopenta[b,e]pyridin-8-yl)carbamoyl)-6,7-dihydro-5H-pyrazolo[5,1-b][1,3]oxazine-3-sulfonimidamide]
pIC50 [3]: 5.30 to 6.00

Structure (SMILES): CC(C)c1ncc(F)c(C(C)C)c1NC(=O)N=S(N)(=O)c1cnc(C(C)(C)O)s1 (centres unmarked) [Compound 164, N′-((5-fluoro-2,4-diisopropylpyridin-3-yl)carbamoyl)-2-(2-hydroxypropan-2-yl)thiazole-5-sulfonimidamide]
pIC50 (Homo sapiens, THP-1, Table B1, class symbols, read-out: Average IC50 of compounds in hTHP-1 assay: hTHP-1 IC50): 5.30 to 6.00

Structure (SMILES): Cc1c(C2CCC2)nc2c(c1NC(=O)N=S(N)(=O)c1cc(C(C)(C)O)cs1)CCC2 (centres unmarked) [Compound 658, N′-((2-cyclobutyl-3-methyl-6,7-dihydro-5H-cyclopenta[b]pyridin-4-yl)carbamoyl)-4-(2-hydroxypropan-2-yl)thiophene-2-sulfonimidamide]
pIC50 [3]: 4.52 to 5.30

Structure (SMILES): CC1CCc2c1nc1c(c2NC(=O)N=S(N)(=O)c2cc(C(C)(C)O)cs2)CCC1 (centres unmarked) [Compound 141, 4-(2-hydroxypropan-2-yl)-N′-((3-methyl-1,2,3,5,6,7-hexahydrodicyclopenta[b,e]pyridin-8-yl)carbamoyl)thiophene-2-sulfonimidamide]
pIC50 [2]: 6.70 to 7.40

Structure (SMILES): CC(C)(O)c1ncc(S(N)(=O)=NC(=O)Nc2c3c(nc4c2CCC4=O)CCC3)s1 (centres unmarked) [Compound 711]
pIC50 [5]: < 4.52

Structure (SMILES): CC(C)(O)c1nc(CO)c(S(N)(=O)=NC(=O)Nc2c3c(nc4c2CCC4(C)C)CCC3)s1 (single isomer, unassigned) [Compound 121b, (S) or (R)-N′-((3,3-dimethyl-1,2,3,5,6,7-hexahydro-dicyclopenta[b,e]pyridin-8-yl)carbamoyl)-4-(hydroxymethyl)-2-(2-hydroxypropan-2-yl)thiazole-5-sulfonimidamide]
pIC50 [2]: 4.52 to 5.30

Structure (SMILES): Cc1c(C2CC2)nc2c(c1NC(=O)N=S(N)(=O)c1cnn3c1OCCC3)CCC2 (single isomer, unassigned) [Compound 306b, (R) or (S)-N′-((2-cyclopropyl-3-methyl-6,7-dihydro-5H-cyclopenta[b]pyridin-4-yl)carbamoyl)-6,7-dihydro-5H-pyrazolo[5,1-b][1,3] oxazine-3-sulfonimidamide]
pIC50 [3]: 4.52 to 5.30

Structure (SMILES): Cc1cc(C2CC2)nc(NC(=O)N=S(N)(=O)c2ncc(C(C)(C)O)s2)n1 (centres unmarked) [Compound 185, N′-((4-cyclopropyl-6-methylpyrimidin-2-yl)carbamoyl)-5-(2-hydroxypropan-2-yl)thiazole-2-sulfonimidamide]
pIC50 (Homo sapiens, THP-1, Table B1, numeric bounds, read-out: Average IC50 of compounds in hTHP-1 assay: hTHP-1 IC50): < 4.52
pIC50 [5]: < 4.52
